Experimental data reported in patent US9555057B2, “Compositions and methods for reducing cutaneous microbiome malodor” (The Research Foundation for The State University of New York, priority 2014, dated 2017).
Entries after “also recorded” stand apart in the source; their conditions may differ.

Tests used:
[1] = system: C. striatum, Staph. epidermidis or a 1:1 mixture thereof
Description: The pH of the medium with each of the different zinc salts needed some adjustment, which was done with 1 M HCl or 1 M NaOH depending upon the pH of the stock solutions of each zinc salt employed.

[2] = system: Staph. epidermidis (ATCC 12228); experiment: Kirby-Bauer disk diffusion susceptibility test; type: cell-based, Staphylococcus epidermidis; conditions: zinc compound alone, levels tested (1%, 3%, 5%)
Description: (§1) C. striatum and Staph. epidermidis are among the most prevalent bacteria that comprise the human cutaneous microbiota. […] The purpose of this segment was to examine whether formulations arising out of the studies reported in the prior sections that favor the growth and metabolism of Staph. epidermidis as a desirable skin entity that can inhibit the growth of C. striatum, a less desirable entity, and do so when both microorganisms are present initially at the same levels. In this regard, an adaptation of the Kirby-Bauer disk diffusion susceptibility test appeared to be relevant for such determination.
(§2) Here we have grown less than desirable C. striatum and highly desirable Staph. epidermidis, alone and in combination, under a variety of substrate conditions to determine, if the latter micro-organism could be selected over C. striatum and thereby be used as a means of reducing the presence of less desirable odor-producing C. striatum.
(§3) Compositions indicated as possible suppressants of C. striatum and/or enhancers of Staph. epidermidis were based on the prior studies above and for convenience of presentation were categorized as possible active test ingredients and then formulae and mixtures in which they were tested. Accordingly, the total number of compositions tested was eight. Careful attention was paid to sterility throughout in the preparation and handling of the compounds and compositions utilized herein.
(§4) Each of these formulae were prepared at 4 different concentrations: original as in (b), and 1.5, 2.5 and 7.5 times the original concentration. Again, all formulae were prepared under aseptic conditions.
To make compositions 1.5 times the original concentration listed above, formulae 7.5 times the original concentrations were diluted a factor of 5 with sterile distilled water. […]
Each strain was determined as resistant, intermediate, or susceptible to the ingredients, formulae and mixtures tested. After 24 hours of incubation at 37° C., the diameter of the zone of growth inhibition around each disk was measured to the nearest whole mm. […]

C. striatum (ATCC 43751) = experiment: Kirby-Bauer disk diffusion susceptibility test; type: cell-based, Corynebacterium striatum; conditions: for Intensity of inhibition of the growth of C. striatum (CS): Blood BHI agar plate, 37° C., 24 hours
Description: as §1, §2, §3, §4
To make compositions 1.5 times the original concentration listed above, formulae 7.5 times the original concentrations were diluted a factor of 5 with sterile distilled water. To make compositions 2.5 times the original concentration listed above, formulae 7.5 times the original concentrations were diluted three-fold with sterile distilled water. To summarize: a total of 3 ingredients, 2 formulae and 2 mixtures were tested. A total of 20 disks were prepared for tests of susceptibility to each bacterial sample and these are outlined in Table 5.2 below:
A TB syringe with a 25-27 G sterile needle was used to help break up the remains of any pellets. […] Plating Procedures • Five bacterial samples of C. striatum and Staph. epidermidis were plated on Blood BHI agar and CHROMagar plates, respectively. • 100 μl of each bacterial sample was inoculated on Blood BHI agar plates by using sterile glass bars and a turning table to facilitate each bacterial sample being spread evenly on each of the agar plates. • Each spread bacterial suspension was allowed to dry on inoculated plates for five minutes. • Paper disks were immersed, respectively, with the above 3 ingredients, 2 formulae and 2 mixtures; absorptions were saturated. • Four disks were placed on each plate with sterile forceps. • Incubated plates within 15 minutes after applying the disks to ensure test was under standardized conditions, where diffusion of the ingredients and formulae and bacterial growth commence at approximately the same time. Plates were incubated at 37° C. for 24 hours. Interpretation of Results
Each strain was determined as resistant, intermediate, or susceptible to the ingredients, formulae and mixtures tested. After 24 hours of incubation at 37° C., the diameter of the zone of growth inhibition around each disk was measured to the nearest whole mm. Plates were carefully examined for well-developed colonies within the zone of inhibition.

[3] = system: pure cultures of microorganisms resident on human axillary skin; conditions: for Odor released on catabolism: bacteria that catabolized the substrate
Protocol: Pure cultures of the numerically most prominent microorganisms normally resident on human axillary skin (see Table 1) were surveyed for their effects on (i) pH, (ii) Eh, (iii) ability to generate malodor and (iv) ability to generate hydrogen peroxide. Four hour incubation experiments were conducted, in which each of a wide range of carbohydrate and amino acid substrates (see Table 1) were surveyed for malodor production and related changes in pH and Eh thereto.
Each microorganism was recovered from its frozen state at −70° C. and grown at 37° C. in 10 ml of appropriate and respective culture media for a period between 24 and 48 hours (see Table 1). Incubations were carried out to middle and late exponential stages of bacterial growth under the incubation conditions indicated in Table 1. A 1.5 ml inoculum was transferred therefrom to polypropylene bottles containing 150 ml of the initial growth medium. This was then incubated at 37° C. for 24 to 48 hours. Bacteria were harvested by centrifugation (DuPone, Sorvall, Newtown, Conn.) at 10,000 g and 4° C. for 20 min. […] The sediment was then washed with sterile distilled water to remove residual growth medium. This was done by centrifuging the bacterial sediment three times at 1,740 g for 15 min at 4° C.
Each pure culture was pre-incubated at 37° C. at pH 7.0 to exhaust or reduce any stored carbohydrate and other carbon/energy sources acquired during growth in culture.
Both of these electrodes were connected to a second pH meter (pH M26 Radiometer Copenhagen NV, Denmark) and used here as a millivoltmeter. For the Eh measurements, when the Eh electrode was immersed in an incubation mixture, each Eh reading was recorded after allowing several seconds for each reading to stabilize. The Eh value was related to that of the hydrogen electrode by adding to each reading the difference between the E0 value for the Red Rod reference element-mercury and hydrogen electrodes—i.e. 270 my at 25° C.
At each time point, the odor was determined organoleptically by immersing a solid glass rod into each incubation mixture, stirring gently 3 times and then removing and carefully smelling the rod after 5 seconds. The intensity of the odor was assessed on a 0 to 4 numerical scale (0—no odor, 1—mild odor, 2—moderate odor, 3—strong odor, and 4—very strong odor).

[4] = system: mixture of C. striatum and Staph. epidermidis in the ratio of 1 to 1; experiment: Zinc carbonate / arginine bicarbonate on odor and pH, CIL and phenylalanine medium; type: cell-based
[5] = 3% and 5%, Blood BHI agar plates
[6] = concentration 5%, paper disk 12.7 mm

Compound: CC(=O)[O-].CC(=O)[O-].[Zn+2] [Zinc acetate]
- Sulfurous odor and Eh ([1]; zinc acetate, CIL and either arginine or arginine bicarbonate, pH 4.0 to 8.0, 4 hours, no phenylalanine): No sulfurous odor nor corresponding decrease in the Eh

Compound: NCC(=O)[O-].NCC(=O)[O-].[Zn+2] [Zinc glycinate, zinc glycinate]
- Sensitivity of Staph. epidermidis (in words) [2]: not sensitive
- Sensitivity of C. striatum (in words) (C. striatum (ATCC 43751); 1%, Blood BHI agar): not sensitive
- Sensitivity of C. striatum (in words) (C. striatum (ATCC 43751); [5]): viability loss; also recorded: sensitive
- Diameter of the zone of growth inhibition, C. striatum (C. striatum (ATCC 43751); concentration 3%): 14 mm
- Partial or complete inhibition, C. striatum (C. striatum (ATCC 43751); concentration 3%): (p)
- Intensity of inhibition of the growth of C. striatum (CS) (C. striatum (ATCC 43751); concentration 3%): + ((+) the diameter of inhibition <15 mm)
- Partial or complete inhibition, C. striatum (C. striatum (ATCC 43751); concentration 5%): (p)
- Intensity of inhibition of the growth of C. striatum (CS) (C. striatum (ATCC 43751); concentration 5%): ++ ((++) the diameter of inhibition 15-20 mm)
- Diameter of the zone of growth inhibition, C. striatum (C. striatum (ATCC 43751); [6]): 17 mm

Compound: N[C@@H](CS)C(=O)O [cysteine]
- Odor released on catabolism ([3]; 6.0 mM): sulfurous odor

Compound: N[C@@H](CSSC[C@H](N)C(=O)O)C(=O)O [cystine]
- Odor released on catabolism ([3]; 6.0 mM): sulfurous odor

Compound: CC(C)C[C@H](N)C(=O)O [leucine]
- Foot-web odor score ([3]; 6.0 mM, Staph. saprophyticus, Staph. hominis, Staph. haemolyticus and C. minutissium, 0 to 4 scale): 2

Compound: CSCC[C@H](N)C(=O)O [methionine]
- Methyl mercaptan-like odor level ([3]; 6.0 mM, Staph. epidermidis, Staph. saprophyticus, C. jeikeium, C. minutissium, Brevibacterium epidermidis, P. avidum, P. acne, M. furfur): mild to moderate

Compound: N[C@@H](Cc1ccccc1)C(=O)O [phenylalanine]
- Odor produced on catabolism (in words) ([3]; 6.0 mM, C. striatum, Staph. saprophyticus or Staph. hominis): pleasant odor
- Pleasant odor ([4]; medium with zinc carbonate, CIL and phenylalanine, between pH 5.0 and 8.0, 4 hours): pleasant odor developed
- Pleasant odor ([4]; phenylalanine added to zinc acetate, CIL, arginine or arginine bicarbonate media, pH 6.5 and 7.0, 4 hour): pleasant odor appeared

Compound: OC[C@H]1O[C@@](CO)(O[C@H]2O[C@H](CO)[C@@H](O)[C@H](O)[C@H]2O)[C@@H](O)[C@@H]1O [sucrose]
- pH response, lowest pH reached ([3]; 28 mM carbohydrate, start pH 7.0, 37° C., 4 hours, across the bacteria tested): 4.2

Compound: N[C@@H](Cc1c[nH]c2ccccc12)C(=O)O [tryptophan]
- Indole/skatole odor level ([3]; 6.0 mM, M. luteus and P. acne, 0 to 4 scale): 2

Compound: Zinc arginate
- Foot odor smell ([1]; 12 mM zinc arginate, CIL and phenylalanine, pH 4.0 or 5.0, 4 hours): mild
- Eh ([1]; 12 mM zinc arginate, CIL and phenylalanine, pH 4.0 to 8.0, 4 hours): decreased significantly
- Sulfurous odor ([1]; 12 mM zinc arginate, CIL and phenylalanine, pH 4.0 to 8.0, 4 hours, versus control groups): blocked completely
- Foot odor generation ([1]; 12 mM zinc arginate, CIL and phenylalanine, pH 6.0 or above): disappeared
- Favorable odor ([1]; C. striatum or the mixture, zinc arginate, CIL and phenylalanine, pH 5.0 to 8.0, 4 hours): evident
- Pleasant flower odor ([1]; Staph. epidermidis alone, zinc arginate, CIL and phenylalanine, 4 hours): not detected

Compound: basic zinc carbonate (ZnCO3. 3 Zn(OH)2)
- Sulfurous odor ([4]; medium with zinc carbonate, CIL and phenylalanine, pH 4.0 to 8.0, 4 hours): no sulfurous odor was observed
- Sensitivity of Staph. epidermidis (in words) [2]: not sensitive
- Sensitivity of C. striatum (in words) (C. striatum (ATCC 43751); 1%, Blood BHI agar): not sensitive
- Sensitivity of C. striatum (in words) (C. striatum (ATCC 43751); [5]): viability loss; also recorded: sensitive
- Partial or complete inhibition, C. striatum (C. striatum (ATCC 43751); concentration 1%): (p)
- Intensity of inhibition of the growth of C. striatum (CS) (C. striatum (ATCC 43751); concentration 1%): ±
- Diameter of the zone of growth inhibition, C. striatum (C. striatum (ATCC 43751); concentration 3%): 14 mm
- Partial or complete inhibition, C. striatum (C. striatum (ATCC 43751); concentration 3%): (p)
- Intensity of inhibition of the growth of C. striatum (CS) (C. striatum (ATCC 43751); concentration 3%): + ((+) the diameter of inhibition <15 mm)
- Partial or complete inhibition, C. striatum (C. striatum (ATCC 43751); concentration 5%): (p)
- Intensity of inhibition of the growth of C. striatum (CS) (C. striatum (ATCC 43751); concentration 5%): ++ ((++) the diameter of inhibition 15-20 mm)
- Diameter of the zone of growth inhibition, C. striatum (C. striatum (ATCC 43751); [6]): 15 mm
